Test results reported in the supplement of paper PMC11208160.

Test: recombinant barcode read abundance after kanamycin selection (control-corrected) (log10(CPM+1)); higher = more efficient recombination; sequences stand for … in AGTGCAGAGAAAATCGGCCAGTTTTCTCTGCCTGCAGTCCGCATGCCGT…AGATTTATGCAGCGGACTGCCTTTCTCCCAAAGTGATAAACCGGACAGTATCATGGACCGGTTTTCCCGGTAATCCGTATTTGCAAGGTTGGTTTCACT; site = the 11-nt target
Summary of the method: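 Recombination efficiency draws on barcodes counted at recombinant junctions in a pooled E. coli screen of targets paired with IS621 bridge RNA target-binding loops. The counts were converted to counts per million, averaged and corrected against the chloramphenicol/ampicillin LB agar control, then reported as log10(CPM+1). Selection plates held chloramphenicol/ampicillin/kanamycin with 0.1 mM IPTG, with two replicates per condition.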
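Further: IS621 recombinase and bridge RNA in Escherichia coli cells.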

Row | Sequence | recombinant barcode read abundance (log10)
1 | GTAGACCCTTGGGTTCTAACCTGTTGCCT (site ATAGACCCTAG) | 2.3
2 | GTAGACCCTTGGGTTCTAACCTGTTGCCT (site CTAGACCCTAG) | 1.16
3 | GTAGACCCTTGGGTTCTAACCTGTTGCCT (site GTAGACCCTAG) | 2.5
4 | GTAGACCCTTGGGTTCTAACCTGTTGCCT (site TTAGACCCTAG) | 1.85
5 | GTAGACCCTTGGGTTCTAACCTGTTGCGT (site GTAGACCCTAC) | 3.46
6 | GTAGACCCTTGGGTTCTAACCTGTTGCGT (site GTAGACCCTCA) | 0.309
7 | GTAGAGTCTTGGGTTCTAACCTGTTGCCT (site GAAGAGTCTAG) | 2.36
8 | GTAGAGTCTTGGGTTCTAACCTGTTGCCT (site GCAGAGTCTAG) | 1.94
9 | GTAGAGTCTTGGGTTCTAACCTGTTGCCT (site GGAGAGTCTAG) | 0.239
10 | GTAGAGTCTTGGGTTCTAACCTGTTGCCT (site GTAGAGTCTAG) | 2.84
11 | GTAGCAGCTTGGGTTCTAACCTGTTGCTC (site CTAGTAGCTGA) | 0.146
12 | GTAGCAGCTTGGGTTCTAACCTGTTGCTC (site GTAGCAGCTGA) | 1.4
13 | GTAGCGACTTGGGTTCTAACCTGTTGCCT (site ATAGGGACTAG) | 0.149
14 | GTAGCGACTTGGGTTCTAACCTGTTGCCT (site GTAGCGACTAG) | 1.43
15 | GTAGGAACTTGGGTTCTAACCTGTTGCTG (site CGGCTGTCTAG) | 0.0122
16 | GTAGGAACTTGGGTTCTAACCTGTTGCTG (site GTAGGAACTCA) | 2.54
17 | GTAGGGACTTGGGTTCTAACCTGTTGCCG (site AGCCCTTCTAA) | 0.192
18 | GTAGGGACTTGGGTTCTAACCTGTTGCCG (site GTAGGGACTCG) | 2.47
19 | GTAGTACCTTGGGTTCTAACCTGTTGCCT (site GTAGTAACTAG) | 0.0694
20 | GTAGTACCTTGGGTTCTAACCTGTTGCCT (site GTAGTACCTAG) | 1.73
21 | GTAGTACCTTGGGTTCTAACCTGTTGCCT (site GTAGTAGCTAG) | 0.247
22 | GTAGTACCTTGGGTTCTAACCTGTTGCCT (site GTAGTATCTAG) | 0.545

Row | Sequence | recombinant barcode read abundance (log10)
23 | GTAGTCCCTTGGGTTCTAACCTGTTGCCT (site GAAGTCTCTAG) | 0.118
24 | GTAGTCCCTTGGGTTCTAACCTGTTGCCT (site GTAGTCCCTAG) | 2.06
25 | GTAGTGTCTTGGGTTCTAACCTGTTGCTA (site CTAGTGTCTTA) | 1.61
26 | GTAGTGTCTTGGGTTCTAACCTGTTGCTA (site GTAGTGTCTTA) | 2.37
27 | GTATCAACTTGGGTTCTAACCTGTTGCCT (site GTATCAACTAG) | 0.35
28 | GTATCAACTTGGGTTCTAACCTGTTGCCT (site GTATCACCTAG) | 0.0908
29 | GTATCAACTTGGGTTCTAACCTGTTGCCT (site GTATCAGCTAG) | 0.0211
30 | GTATCAACTTGGGTTCTAACCTGTTGCCT (site GTATCATCTAG) | 0
31 | GTATCACCTTGGGTTCTAACCTGTTGCCT (site GTATCAACTAG) | 0.19
32 | GTATCACCTTGGGTTCTAACCTGTTGCCT (site GTATCACCTAG) | 1.44
33 | GTATCACCTTGGGTTCTAACCTGTTGCCT (site GTATCAGCTAG) | 0.187
34 | GTATCACCTTGGGTTCTAACCTGTTGCCT (site GTATCATCTAG) | 0.0641
35 | GTATGACCTTGGGTTCTAACCTGTTGCCT (site GTATGAACTAG) | 0.0455
36 | GTATGACCTTGGGTTCTAACCTGTTGCCT (site GTATGACCTAG) | 1.86
37 | GTATGACCTTGGGTTCTAACCTGTTGCCT (site GTATGAGCTAG) | 0.0609
38 | GTATGACCTTGGGTTCTAACCTGTTGCCT (site GTATGATCTAG) | 0.217
39 | GTATGAGCTTGGGTTCTAACCTGTTGCCT (site GTATGAACTAG) | 0.475
40 | GTATGAGCTTGGGTTCTAACCTGTTGCCT (site GTATGACCTAG) | 0.0478
41 | GTATGAGCTTGGGTTCTAACCTGTTGCCT (site GTATGAGCTAG) | 1.5
42 | GTATGAGCTTGGGTTCTAACCTGTTGCCT (site GTATGATCTAG) | 0.135
43 | GTATGCCCTTGGGTTCTAACCTGTTGCCT (site GTATGCCCTAG) | 1.38
44 | GTATGCCCTTGGGTTCTAACCTGTTGCCT (site GTGGGCCCTAG) | 0

Row | Sequence | recombinant barcode read abundance (log10)
45 | GTATGGTCTTGGGTTCTAACCTGTTGCGT (site GTATCGTCTAG) | 0.0442
46 | GTATGGTCTTGGGTTCTAACCTGTTGCGT (site GTATGGTCTAC) | 2.98
47 | GTATGTACTTGGGTTCTAACCTGTTGCAT (site GTATGATCTAT) | 0.206
48 | GTATGTACTTGGGTTCTAACCTGTTGCAT (site GTATGTACTAT) | 0.435
49 | GTCAACTCTTGGGTTCTAACCTGTTGCCT (site GTAAACTCTAG) | 0.0267
50 | GTCAACTCTTGGGTTCTAACCTGTTGCCT (site GTCAACTCTAG) | 2.06
51 | GTCAACTCTTGGGTTCTAACCTGTTGCCT (site GTGAACTCTAG) | 0.00674
52 | GTCAACTCTTGGGTTCTAACCTGTTGCCT (site GTTAACTCTAG) | 0.13
53 | GTCAATCCTTGGGTTCTAACCTGTTGCGG (site CGACGAACTAG) | 0.138
54 | GTCAATCCTTGGGTTCTAACCTGTTGCGG (site GTCAATCCTCC) | 1.25
55 | GTCAATCCTTGGGTTCTAACCTGTTGCGT (site GCCACTCCTAC) | 0.0762
56 | GTCAATCCTTGGGTTCTAACCTGTTGCGT (site GTCAATCCTAC) | 1.98
57 | GTCACCTCTTGGGTTCTAACCTGTTGCCT (site GTCACCTCTAG) | 1.8
58 | GTCACCTCTTGGGTTCTAACCTGTTGCCT (site GTCCCCTCTAG) | 0.0973
59 | GTCACCTCTTGGGTTCTAACCTGTTGCCT (site GTCGCCTCTAG) | 0.0645
60 | GTCACCTCTTGGGTTCTAACCTGTTGCCT (site GTCTCCTCTAG) | 0.105
61 | GTCACTACTTGGGTTCTAACCTGTTGCGT (site GTAACTACTCC) | 0.182
62 | GTCACTACTTGGGTTCTAACCTGTTGCGT (site GTCACTACTAC) | 0.517
63 | GTCAGCCCTTGGGTTCTAACCTGTTGCGG (site GTCAGCCCTCC) | 2.53
64 | GTCAGCCCTTGGGTTCTAACCTGTTGCGG (site GTTAGCCCTCC) | 0.365
65 | GTCCCTCCTTGGGTTCTAACCTGTTGCGT (site GTCCCTCCTAA) | 0.0918
66 | GTCCCTCCTTGGGTTCTAACCTGTTGCGT (site GTCCCTCCTAC) | 2.74

Row | Sequence | recombinant barcode read abundance (log10)
67 | GTCCCTCCTTGGGTTCTAACCTGTTGCGT (site GTCCCTCCTAG) | 0.156
68 | GTCCCTCCTTGGGTTCTAACCTGTTGCGT (site GTCCCTCCTAT) | 1.34
69 | GTCCTACCTTGGGTTCTAACCTGTTGCAA (site GTCCTAACTGT) | 0.42
70 | GTCCTACCTTGGGTTCTAACCTGTTGCAA (site GTCCTACCTTT) | 1.45
71 | GTCGAGCCTTGGGTTCTAACCTGTTGCCT (site GTCGAGCCTAG) | 2.12
72 | GTCGAGCCTTGGGTTCTAACCTGTTGCCT (site GTTCAGCCTAG) | 0.157
73 | GTCGAGTCTTGGGTTCTAACCTGTTGCCT (site GTCGACACTAG) | 0.186
74 | GTCGAGTCTTGGGTTCTAACCTGTTGCCT (site GTCGAGTCTAG) | 1.61
75 | GTCGCTACTTGGGTTCTAACCTGTTGCCG (site GTCACTACTCG) | 0
76 | GTCGCTACTTGGGTTCTAACCTGTTGCCG (site GTCCCTACTCG) | 0.0655
77 | GTCGCTACTTGGGTTCTAACCTGTTGCCG (site GTCGCTACTCG) | 0.95
78 | GTCGCTACTTGGGTTCTAACCTGTTGCCG (site GTCTCTACTCG) | 1.35
79 | GTCGCTACTTGGGTTCTAACCTGTTGCGG (site GTCGCTACTCC) | 0.785
80 | GTCGCTACTTGGGTTCTAACCTGTTGCGG (site GTCTCTACTCC) | 0.667
81 | GTCGGTCCTTGGGTTCTAACCTGTTGCAC (site GTCGGTCCTGT) | 2.49
82 | GTCGGTCCTTGGGTTCTAACCTGTTGCAC (site TGAAACTCTCC) | 0.0122
83 | GTCGTACCTTGGGTTCTAACCTGTTGCCT (site GTCATACCTAG) | 0.348
84 | GTCGTACCTTGGGTTCTAACCTGTTGCCT (site GTCCTACCTAG) | 0.0361
85 | GTCGTACCTTGGGTTCTAACCTGTTGCCT (site GTCGTACCTAG) | 0.704
86 | GTCGTACCTTGGGTTCTAACCTGTTGCCT (site GTCTTACCTAG) | 0.221
